According to US20150306049A1, “IMMEDIATE RELEASE FORMULATIONS OF CINACALCET” (K.H.S. PHARMA HOLDING GMBH, priority 2012, published 2015):
Read-outs that look alike come from different tables or passages of the source.

Details: for % Dissolution: 200 mg in 900 ml 0.1 N HCl, 37.0°C, 75 rpm
Procedure: 200mg of cinacalcet HCl of different D50 values was dropped into a vessel containing 900 ml of dissolution medium (0.1 N HCl) at 37.0+/−0.5° C. and stirred at 75 rpm.

Compound: C[C@@H](NCCCc1cccc(C(F)(F)F)c1)c1cccc2ccccc12.Cl [cinacalcet HCl]
- solubility (dissolution) compared with larger particle sizes: much lower solubility
- % Dissolution (D50 = 20 μm, 0 min, D50 = 89 μm after 60 min set to 100%): 0%
- % Dissolution (D50 = 20 μm, 15 min, D50 = 89 μm after 60 min set to 100%): 24%
- % Dissolution (D50 = 20 μm, 30 min, D50 = 89 μm after 60 min set to 100%): 52%
- % Dissolution (D50 = 20 μm, 45 min, D50 = 89 μm after 60 min set to 100%): 74%
- % Dissolution (D50 = 20 μm, 60 min, D50 = 89 μm after 60 min set to 100%): 86%
- % Dissolution (D50 = 82 μm, 0 min, D50 = 89 μm after 60 min set to 100%): 0%
- % Dissolution (D50 = 82 μm, 15 min, D50 = 89 μm after 60 min set to 100%): 90%
- % Dissolution (D50 = 82 μm, 30 min, D50 = 89 μm after 60 min set to 100%): 96%
- % Dissolution (D50 = 82 μm, 45 min, D50 = 89 μm after 60 min set to 100%): 98%
- % Dissolution (D50 = 82 μm, 60 min, D50 = 89 μm after 60 min set to 100%): 98%
- % Dissolution (D50 = 89 μm, 0 min, D50 = 89 μm after 60 min set to 100%): 0%
- % Dissolution (D50 = 89 μm, 15 min, D50 = 89 μm after 60 min set to 100%): 87%
- % Dissolution (D50 = 89 μm, 30 min, D50 = 89 μm after 60 min set to 100%): 98%
- % Dissolution (D50 = 89 μm, 45 min, D50 = 89 μm after 60 min set to 100%): 99%
- % Dissolution (D50 = 89 μm, 60 min, set to 100%): 100%
